In US8952013B2, “Controlled release sterile injectable aripiprazole formulation and method” (Otsuka Pharmaceutical Co., Ltd., priority 2003, dated 2015) one finds aqueous solubility and water content data, which are given here for two molecules.

The conditions of data set [1]: at room temperature; cited from earlier work.
The nature of data set [2]: hygroscopicity: water content after storage in a dessicator. In kind it is physicochemical. Conditions: after 24 hours inside a dessicator at 60° C. and a humidity of 100%. The procedure:
Aripiprazole Anhydrous Crystals B employed in the present invention have low hygroscopicity. For example, Aripiprazole Anhydrous Crystals B employed in the present invention maintain a water content of 0.4% or less after 24 hours inside a dessicator set at a temperature of 60° C. and a humidity of 100%.
Well-known methods of measuring water content can be used as long as they are methods commonly used for measuring the water content of crystals. For example, a method such as the Karl Fischer method can be used.

As to `O=C1CCc2ccc(OCCCCN3CCN(c4cccc(Cl)c4Cl)CC3)cc2N1` [Aripiprazole], the aqueous solubility (commonly the dissolved amount per volume that the medium holds) in data set [1] was less than 1 µg/mL.

`O=C1CCc2ccc(OCCCCN3CCN(c4cccc(Cl)c4Cl)CC3)cc2N1` [Aripiprazole Anhydrous Crystals B, Aripiprazole] returned a water content in data set [2] of no more than 0.4%.
